Source: patent US6436940B1, “Indane or dihydroindole derivatives” (H. Lundbeck A/S, priority 1996, dated 2002)
pIC50: −log10 of the molar value. Counter-ions that a name gives are not always drawn.

Assays:
[1] = target: T1, dopamine D4 receptors in cloned human dopamine receptor subtype 4.2 membranes (Homo sapiens, UniProt P21917, DEL265-296); assay: 3H-YM-09151-2 binding; details: 3H-YM-09151-2, cloned human D4.2 membranes
T1 construct: purchased Dupharma A/S, Denmark CRM-016
T1 sequence (P21917 with tags, fused parts or gaps DEL265-296): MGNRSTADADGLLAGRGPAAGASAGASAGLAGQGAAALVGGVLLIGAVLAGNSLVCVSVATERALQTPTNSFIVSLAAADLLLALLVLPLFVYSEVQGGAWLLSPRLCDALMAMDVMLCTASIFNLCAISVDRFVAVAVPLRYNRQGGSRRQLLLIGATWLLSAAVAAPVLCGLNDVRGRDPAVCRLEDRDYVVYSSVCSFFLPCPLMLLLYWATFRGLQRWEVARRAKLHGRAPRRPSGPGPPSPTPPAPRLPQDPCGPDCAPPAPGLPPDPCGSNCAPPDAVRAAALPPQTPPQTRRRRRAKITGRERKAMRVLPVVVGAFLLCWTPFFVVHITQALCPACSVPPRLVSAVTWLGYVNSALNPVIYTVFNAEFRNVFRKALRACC
Description: By this method the inhibition by drugs of the binding of the dopamine D4 antagonist ^3H-YM-09151-2 to dopamine D4 receptors in cloned human dopamine receptor subtype 4.2 membranes is determined in vitro. Accordingly, this is a test for affinity for dopamine D4 receptors. The test is performed using a preparation of cloned dopamine D4 cell membranes CRM-016®, Dupharma A/S, Denmark, in accordance with the product specifications.

| SMILES | pIC50 [1] | also measured |
| --- | --- | --- |
| c1ccc2c(c1)CCC2CCN1CCN(c2ccc3c(c2)OCO3)CC1 (centres unmarked) [Compound 6a, 1-[2-[4-(3,4-Methylenedioxyphenyl)-piperazine-1-yl]ethyl]-indane] | 8.25 |  |
| c1ccc2c(c1)CCC2CN1CCN(c2ccc3c(c2)OCO3)CC1 (centres unmarked) [Compound 4a] | 8.06 |  |
| Brc1ccc2c(c1)C(CN1CCN(c3ccc4c(c3)OCO4)CC1)CC2 (centres unmarked) [Compound 4b] |  | % inhibition of binding at 50 nM ([1]; at 50 nM): 33% at 50 nM |
| c1ccc2c(c1)CC(CN1CCN(c3ccc4c(c3)OCO4)CC1)C2 (as salt: oxalate) [Compound 6b] |  | melting point: 197 to 199 °C |
| c1ccc2c(c1)CC(CN1CCN(c3ccc4c(c3)OCO4)CC1)C2 [Compound 6b] | 8.74 |  |
| c1ccc2c(c1)CCC2CCN1CCN(c2ccc3c(c2)OCO3)CC1 (centres unmarked) (as salt: fumarate) [Compound 6a, 1-[2-[4-(3,4-Methylenedioxyphenyl)-piperazine-1-yl]ethyl]-indane] |  | melting point: 191 to 192 °C |

Continued, in another order:

| pIC50 [1] | SMILES | also measured |
| --- | --- | --- |
| 8.43 | CC(=O)N1CC(CCN2CCN(c3ccc4c(c3)OCO4)CC2)c2ccccc21 (centres unmarked) [Compound 9b, 1-Acetyl-2,3-dihydro-3-[2-[4-[(3,4-methylenedioxyphenyl)piperazine-1-yl]ethyl]]1H-indole] |  |
| 8.37 | O=C(CCCN1CCN(c2ccc3c(c2)OCO3)CC1)C1CNc2ccccc21 (centres unmarked) [Compound 9a, 2,3-Dihydro-3-[4-[4[(3,4-methylenedioxyphenyl)piperazine-1-yl]butyl-1-oxo]]-1H-indole] |  |
